The source of these data is patent publication US20060280725A1, “Compositions and methods of treating and diagnosing hepatoma” (priority 2003, published 2006).

The structures appear in SMILES notation. Where two headings read alike, the source gives them in different places.

One assay concerns THLE-5B. The assay can be described thus: Glutamine transport assay (inhibition and kinetic analysis). It is filed as cell-based, human. The procedure:
FIG. 1. Amino acid inhibition analysis of glutamine transport in the Hep3B, PLC/PRF/5 and Focus human hepatoma cell lines and the THLE-5B SV40-immortalized human liver epithelial cell line. The Na^+-dependent transport of 50 μM L-glutamine was measured as described in the Methods section in the absence or presence of the indicated unlabeled amino acids at 5 mM. Testing of cysteine (CYSH) required the presence of 5 mM dithiothreitol (DTT) as a reducing agent, so DTT was tested alone as well. Arrows indicate the relative transport rates for 50 μM L-glutamine in primary human adult (solid arrow) and fetal (open arrow) hepatocytes. The results represent the average±SD of four separate determinations (*p<0.010 versus control). The Eadie-Hofstee plots of the kinetic analyses are shown as an inset in each figure, with the dashed lines representing the resolved high and low affinity components of the composite data (solid line). The derived values of the kinetic constants for each component are given in the Results section.
(§1) Glutamine Transport Assays. Measurement of initial-rate glutamine uptake was carried out via the cluster-tray method originally described by Gazzola (21) as reported previously (6, 9). Briefly, after trypsinization hepatoma cells were plated at a density of 1×10^5 cells/well in 24-well culture plates (Costar Corp., Cambridge, Mass.) and allowed to grow to >80% confluence, typically one to two days later. For initial-rate measurements, the radiotracer utilized was L-[G-^3H] glutamine (Amersham Corp., Arlington Heights, Ill.) at 4 μCi/ml, in the presence of unlabeled L-glutamine at 50 μM. For kinetic studies, the amount of unlabeled glutamine in the transport buffer varied from 10 μM to 10 mM. All transport measurements were carried out at 37° C. and were terminated after 30 s by three rapid washes with an ice-cold phosphate-buffered saline solution. Intracellular radiolabeled glutamine was extracted with 0.2 ml/well of 0.2% sodium dodecyl sulfate (SDS) and 0.2 N NaOH; after 1 h, 0.1 ml of the lysate was neutralized with 10 μl of 2 N HCl and subjected to scintillation spectrophotometry in a Packard TopCount™ (Packard Instruments, Meriden, Conn.). The remaining lysate was utilized for the determination of cellular protein by the bicinchoninic acid (BCA) method (Pierce Chemical Co., Rockford, Ill.). Rates of glutamine transport were calculated from the cpm per sample, the specific activity of the uptake mix (in cpm/nmol) and normalized to cellular protein content in a Microsoft Excel® spreadsheet program. Transport values obtained in the absence of extracellular Na^+ (diffusion and Na^+-independent uptake) were subtracted from those in the presence of Na^+ (total uptake) to yield Na^+-dependent rates which are reported in units of nmol•mg^−1 protein•30 s^−1. All transport values depicted are the average±standard deviation of four separate determinations. Kinetic analysis of Eadie-Hofstee linearized transport data (v vs. v/[L-GLN]) was performed by regression analysis (Cricket Graph®, Computer Associates, Islandia, N.Y.). Nonlinear regression analysis was performed with DataDesk (Data Description, Inc. Ithaca, N.Y.) and Excel for two component Michaelis-Menten kinetics: v=((Vmax1×[S])/(Km1+[S])+(Vmax2×[S])/(Km2+[S])).
It should be noted that extensive depletion of intracellular amino acid pools were not performed prior to transport measurements in these studies because we sought to assess glutamine uptake under more physiological conditions. […]

A further assay relates to Focus. In words: Glutamine transport assay (initial-rate uptake, kinetic analysis). It is filed as cell-based, human. The procedure:
as §1
(§2) Therefore, two component nonlinear regression analyses were performed on the Na^+-dependent transport kinetic data, where they were adequately resolved into high and low affinity components in all cell lines under study. The results are graphically depicted in FIG. 1 as insets. […] Possibilities for each cell line will be offered discussion based on the molecular analyses described below.

A further assay relates to Huh-7. The description is as above. It is filed as cell-based, human. The procedure: as §1, §2
The next assay has as its system Hep3B. Described as above. It is filed as cell-based, human. The procedure: as §1, §2
The test system of another assay is PLC/PRF/5. The description is as above. It is filed as cell-based, human. The procedure:
as §1, §2

Another assay deals with System A & N isoforms. The conditions noted are these: read-out: deduced Km values for glutamine; cited from earlier work.
[1] abbreviates: read-out: Km, high affinity component.
[2] abbreviates: read-out: Km, low affinity component.
The mark [3] stands for this setting: read-out: Km, low affinity system.
The mark [4] stands for this setting: read-out: Km, high affinity system.

In general, Km refers to the substrate concentration at which the rate is half of its maximum. As to `NC(=O)CC[C@H](N)C(=O)O` [glutamine, L-glutamine], the “Vmax, high affinity component” value was 30.8 nmol•mg^−1 protein•30 s^−1 in the assay on THLE-5B, 2.2 nmol•mg^−1 protein•30 s^−1 in the assay on Focus and 7.3 nmol•mg^−1 protein•30 s^−1 with Huh-7. In addition, the figures for the “Vmax, low affinity component” value with THLE-5B and with Huh-7 were 32.6 nmol•mg^−1 protein•30 s^−1 and 11.7 nmol•mg^−1 protein•30 s^−1, respectively. Moreover, the Km in the assay with THLE-5B (setting [1]) worked out at 135 µM; in the assay with THLE-5B (setting [2]), 1300 µM; with Focus (setting [1]), 122 µM; in the assay on Focus (setting [3]), 1200 µM; in the assay on Huh-7 (setting [1]) it was 50 µM; with Huh-7 (setting [2]), 861 µM. The Km with Hep3B (Na+-dependent glutamine transport, read-out: Km, low affinity system) was 1000 µM; with Hep3B (setting [4]), 90 µM; in the assay with PLC/PRF/5 (setting [4]) it was 23 µM; with PLC/PRF/5 (setting [3]), 775 µM; with System A & N isoforms, 1000 to 3000 µM. Also, the “Vmax, low affinity system” value with Focus is given as 2.7 nmol•mg^−1 protein•30 s^−1; in the assay with Hep3B, 4.5 nmol•mg^−1 protein•30 s^−1; in the assay with PLC/PRF/5, 3.9 nmol•mg^−1 protein•30 s^−1. The “Vmax, high affinity system” value was 3.0 nmol•mg^−1 protein•30 s^−1 in the assay on Hep3B and 0.82 nmol•mg^−1 protein•30 s^−1 in the assay on PLC/PRF/5.
